Experimental data reported in US6472418B1, “Non-peptide NK1 receptors antagonists” (Warner-Lambert Company, priority 1998, dated 2002).

These compounds were tested against T1, Human NK1 Receptor (Homo sapiens, UniProt P25103) (assay: In Vitro Human NK1 Receptor Binding Assay ([125I]Bolton-Hunter substance P displacement, IM9 cells)). Details: Human lymphoma IM9 cells, [125I]Bolton-Hunter substance P; Table 3, array-synthesis products; read-out: IC50 (nM) hNK1.
T1 construct: endogenous in cells; host or cells: Human lymphoma IM9 cells (whole cells)
T1 sequence (P25103 whole entry): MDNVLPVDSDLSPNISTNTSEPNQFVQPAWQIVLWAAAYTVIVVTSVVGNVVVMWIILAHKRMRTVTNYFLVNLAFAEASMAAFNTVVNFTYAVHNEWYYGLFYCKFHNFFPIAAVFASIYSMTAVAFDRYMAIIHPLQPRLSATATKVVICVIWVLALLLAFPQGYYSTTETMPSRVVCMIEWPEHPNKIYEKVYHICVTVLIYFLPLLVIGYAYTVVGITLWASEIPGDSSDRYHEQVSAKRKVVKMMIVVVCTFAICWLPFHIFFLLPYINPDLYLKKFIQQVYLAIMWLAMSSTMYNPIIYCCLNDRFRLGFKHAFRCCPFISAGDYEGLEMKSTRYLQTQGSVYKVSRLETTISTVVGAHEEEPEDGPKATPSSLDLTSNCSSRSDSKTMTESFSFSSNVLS
Method: They have been evaluated in an NK1-receptor binding assay which is described below.
Human lymphoma IM9 cells were grown in RPMI 1640 culture medium supplemented with 10% fetal calf serum and 2 mM glutamine and maintained under an atmosphere of 5% CO2. Cells were passaged every 3-4 days by reseeding to a concentration of 4-8×10^6/40 ml per 175 cm^2 flask. Cells were harvested for experiments by centrifugation at 1000 g for 3 min. Pelleted cells were washed once by resuspension into assay buffer (50 mM Tris HCl pH 7.4, 3 mM MnCl2, 0.02% BSA, […] bacitracin, […] chymostatin, 2 mM phosphoramidon, […] leupeptin) and repeating the centrifugation step before resuspending at a concentration of 2.5×10^6 cells/mL assay buffer. Cells ([…]) were incubated with [^125I]Bolton-Hunter substance P (0.05-0.1 nM) in the presence and absence of varying concentrations of test compounds for 50 min at 21° C. Non-specific binding (10% of the total binding observed under these conditions) was defined by […] [Sar^9, Met(02)^11] substance P. Reactions were terminated by rapid filtration under vacuum onto GF\C filters presoaked in 0.2% PEI for 1-2 h, using a Brandel cell harvester. Filters were washed with 6×1 ml ice-cold Tris HCl (50 mM, pH 7.4) and radioactivity bound determined using a gamma couter. Results were analyzed using iterative curve fitting procedures in RS1 or Graphpad Inplot.

First: CC(NC(=O)C(Cc1c[nH]c2ccccc12)NCc1cc2ccccc2o1)c1ccc(Cl)cc1 (stereo not drawn) [Example 264, 2-[(Benzofuran-2-ylmethyl)-amino]-N-[1(4-chloro-phenyl)-ethyl]-3-(1H-indol-3-yl)-propionamide]
Second: CC(NC(=O)C(Cc1c[nH]c2ccccc12)NCc1cc2ccccc2o1)c1ccc(F)cc1 (stereo not drawn) [Example 235, 2-[(Benzofuran-2-ylmethyl)-amino]-N-[1-(4-fluoro-phenyl)-ethyl]-3-(1H-indol-3-yl)-propionamide]
The IC50 of the first is 2.3-fold higher: 7 nM for the first, 3 nM for the second.

First: O=C(NCc1nc2ccccc2[nH]1)C(Cc1c[nH]c2ccccc12)NCc1cc2ccccc2o1 (stereo not drawn) [Example 250, 2-[(Benzofuran-2-ylmethyl)-amino]-N-(1H-benzoimidazol-2-ylmethyl)-3-(1H-indol-3-yl)-propionamide]
Second: O=C(NCc1ccccc1F)C(Cc1c[nH]c2ccccc12)NCc1cc2ccccc2o1 (stereo not drawn) [Example 238, 2-[(Benzofuran-2-ylmethyl)-amino]-N-(2-fluoro-benzyl)-3-(1H-indol-3-yl)-propionamide]
The IC50 of the first is 38-fold higher: 3410 nM for the first, 89 nM for the second.

Compared with `O=C(NCCc1ccccc1)C(Cc1c[nH]c2ccccc12)NCc1cc2ccccc2o1` (stereo not drawn) [Example 246, 2-[(Benzofuran-2-ylmethyl)-amino]-3-(1H-indol-3-yl)-N-phenethyl-propionamide], `O=C(NCCc1ccco1)C(Cc1c[nH]c2ccccc12)NCc1cc2ccccc2o1` (stereo not drawn) [Example 251, 2-[(Benzofuran-2-ylmethyl)-amino]-N-(2-furan-2-yl-ethyl)-3-(1H-indol-3-yl)-propionamide] is 1.7-fold higher in IC50: 77 nM for the first, 129 nM for the second. The first is the more potent here.

Same assay, conditions: Table 4; [125I]Bolton-Hunter substance P displacement, human IM9 cells; read-out: IC50 (nM) hNK1

Going from `CCCCCC(=Cc1ccccc1)CNC(C)(Cc1c[nH]c2ccccc12)C(=O)NC(C)c1ccccc1` (stereo not drawn) [compound 356, 3-(1H-Indol-3-yl)-2-methyl-2-(2-pentyl-3-phenyl-allylamino)-N-(1-phenyl-ethyl)-propionamide] to `CC(NC(=O)C(C)(Cc1c[nH]c2ccccc12)NCc1ccsc1)c1ccccc1` (stereo not drawn) [compound 358, 3-(1H-Indol-3-yl)-2-methyl-N-(1-phenyl-ethyl)-2-[(thiophen-3-ylmethyl)-amino]-propionamide], the IC50 falls from over 10000 nM to 598 nM. The second is the more potent here.

First: COc1ccc2oc(CNC(C)(Cc3c[nH]c4ccccc34)C(=O)NC(C)c3ccccc3)cc2c1 (stereo not drawn) [compound 317, 3-(1H-Indol-3-yl)-2-[(5-methoxy-benzofuran-2-ylmethyl)-amino]-2-methyl-N-(1-phenyl-ethyl)-propionamide]
Second: CC(NC(=O)C(C)(Cc1c[nH]c2ccccc12)NCc1cccc(OCc2ccccc2)c1)c1ccccc1 (stereo not drawn) [compound 344, 2-(3-Benzyloxy-benzylamino)-3-(1H-indol-3-yl)-2-methyl-N-(1-phenyl-ethyl)-propionamide]
The IC50 of the first is higher: over 10000 nM for the first, 185 nM for the second.

Same assay, conditions: Table 5; [125I]Bolton-Hunter substance P displacement, human IM9 cells; read-out: IC50 (nM) hNK1

Compared with `CC(C)C=CCC1=CCC(CNC(Cc2c[nH]c3ccccc23)C(=O)NC(C)c2ccccc2)CC1` (stereo not drawn) [compound 366], `CC(NC(=O)C(Cc1c[nH]c2ccccc12)NCc1cc(F)cc(F)c1)c1ccccc1` (stereo not drawn) [compound 399] is 29-fold lower in IC50: 4050 nM for the first, 140 nM for the second.

Same assay, conditions: human NK1 receptor, IM9 cells, [125I]Bolton-Hunter substance P; read-out: IC50 (nM) hNK1

First: CC(Cc1c[nH]c2ccccc12)(NCc1cc2ccccc2o1)C(=O)NC(Cc1ccccc1)c1ccccc1 (stereo not drawn) [compound 75, 2-[(Benzofuran-2-ylmethyl)-amino]-N-(1,2-diphenyl-ethyl)-3-(1H-indol-3-yl)-2-methyl-propionamide]
Second: CC(Cc1c[nH]c2ccccc12)(NCc1cc2ccccc2o1)C(=O)NCCc1ccccc1 (stereo not drawn) [compound 53, 2-[(Benzofuran-2-ylmethyl)-amino]-3-(1H-indol-3-yl)-2-methyl-N-phenethyl-propionamide]
The IC50 of the first is higher: over 10000 nM for the first, 262 nM for the second. The second is the more potent here.

`COc1cccc(CNC(=O)C(C)(Cc2c[nH]c3ccccc23)NCc2cc3ccccc3o2)c1` (stereo not drawn) [compound 55, 2-[(Benzofuran-2-ylmethyl)-amino]-3-(1H-indol-3-yl)-N-(3-methoxy-benzyl)-2-methyl-propionamide] and `CC(Cc1c[nH]c2ccccc12)(NCc1cc2ccccc2o1)C(=O)NCc1cccnc1` (stereo not drawn) [compound 24, 2-[(Benzofuran-2-ylmethyl)-amino]-3-(1H-indol-3-yl)-2-methyl-N-pyridin-3-ylmethyl-propionamide] are within 1.5-fold of each other in IC50: 643 nM for the first, 547 nM for the second.

`CC(Cc1c[nH]c2ccccc12)(NCc1cc2ccccc2o1)C(=O)NCC1(O)CCCCC1` (stereo not drawn) [compound 116, 2-[(Benzofuran-2-ylmethyl)-amino]-N-(1-hydroxy-cyclohexylmethyl)-3-(1H-indol-3-yl)-2-methyl-propionamide] and `COC1C=CC(CNC(=O)C(C)(Cc2c[nH]c3ccccc23)NCc2cc3ccccc3o2)(OC)O1` (stereo not drawn) [compound 149, 2-[(Benzofuran-2-ylmethyl)-amino]-N-(2,5-dimethoxy-2,5-dihydro-furan-2-ylmethyl)-3-(1H-indol-3-yl)-2-methyl-propionamide] cannot be ordered by IC50: over 10000 nM for the first, over 10000 nM for the second.

Going from `CC(NC(=O)C(C)(Cc1c[nH]c2ccccc12)NCc1cc2ccccc2o1)c1ccccc1N` (stereo not drawn) [compound 36, N-[1-(2-Amino-phenyl)-ethyl]-2-[(benzofuran-2-ylmethyl)-amino]-3-(1H-indol-3-yl)-2-methyl-propionamide] to `CC(NC(=O)C(C)(Cc1c[nH]c2ccccc12)NCc1cc2ccccc2o1)c1ccc(F)cc1` (stereo not drawn) [compound 33, 2-[(Benzofuran-2-ylmethyl)-amino]-N-[1-(4-fluoro-phenyl)-ethyl]-3-(1H-indol-3-yl)-2-methyl-propionamide], the IC50 falls from 1620 nM to 9 nM (180-fold).

First: CC(Cc1c[nH]c2ccccc12)(NCc1cc2ccccc2o1)C(=O)NCc1cc(Br)ccc1O (stereo not drawn) [compound 170, 2-[(Benzofuran-2-ylmethyl)-amino]-N-(5-bromo-2-hydroxy-benzyl)-3-(1H-indol-3-yl)-2-methyl-propionamide]
Second: CC(Cc1c[nH]c2ccccc12)(NCc1cc2ccccc2o1)C(=O)NCc1ccccc1O (stereo not drawn) [compound 186, 2-[(Benzofuran-2-ylmethyl)-amino]-N-(2-hydroxy-benzyl)-3-(1H-indol-3-yl)-2-methyl-propionamide]
The IC50 of the first is 28-fold higher: 2380 nM for the first, 84 nM for the second.

Going from `CC(Cc1c[nH]cn1)NC(=O)C(C)(Cc1c[nH]c2ccccc12)NCc1cc2ccccc2o1` (stereo not drawn) [compound 90, 2-[(Benzofuran-2-ylmethyl)-amino]-N-[2-(1H-imidazol-4-yl)-1-methyl-ethyl]-3-(1H-indol-3-yl)-2-methyl-propionamide] to `CC(NC(=O)C(C)(Cc1c[nH]c2ccccc12)NCc1cc2ccccc2o1)c1cccnc1` (stereo not drawn) [compound 44, 2-[(Benzofuran-2-ylmethyl)-amino]-3-(1H-indol-3-yl)-2-methyl-N-(1-pyridin-3-yl-ethyl)-propionamide], the IC50 falls from over 10000 nM to 151 nM.

Compared with `CC(Cc1c[nH]c2ccccc12)(NCc1cc2ccccc2o1)C(=O)NCc1cnc(N)nc1N` (stereo not drawn) [compound 179, 2-[(Benzofuran-2-ylmethyl)-amino]-N-(2,4-diamino-pyrimidin-5-ylmethyl)-3-(1H-indol-3-yl)-2-methyl-propionamide], `CC(Cc1c[nH]c2ccccc12)(NCc1cc2ccccc2o1)C(=O)NCCc1ccc(N)cc1` (stereo not drawn) [compound 56, N-[2-(4-Amino-phenyl)-ethyl]-2-[(benzofuran-2-ylmethyl)-amino]-3-(1H-indol-3-yl)-2-methyl-propionamide] is 1.8-fold lower in IC50: 5920 nM for the first, 3230 nM for the second. The second is the more potent here.

With `CC(Cc1c[nH]c2ccccc12)(NCc1cc2ccccc2o1)C(=O)NC1CCc2ccccc21` (stereo not drawn) [compound 130, 2-[(Benzofuran-2-ylmethyl)-amino]-N-indan-1-yl-3-(1H-indol-3-yl)-2-methyl-propionamide] the IC50 was 163 nM.
